Experiments:
Test in all cases: KinomeScan profiling
Type in all cases: binding
[1] = target: T1, ABL1(F317I)-phoshorylated (Homo sapiens, UniProt P00519, F317I); conditions: read-out: % control
T1 construct: purchased KinomeScan®
Summary of the method: (§1)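 Test agents were profiled at a single concentration of 1 μM (DMSO vehicle) on a near-complete set of 468 kinases. Signal is reported relative to vehicle (100%) and a fully displacing control (0%).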

CDK4-cyclinD1 = CDK4-cyclinD1 (Homo sapiens, UniProt P11802); conditions: CDK4-cyclinD1, 1 μM; read-out: % control
Sequence of CDK4-cyclinD1 (P11802 whole entry): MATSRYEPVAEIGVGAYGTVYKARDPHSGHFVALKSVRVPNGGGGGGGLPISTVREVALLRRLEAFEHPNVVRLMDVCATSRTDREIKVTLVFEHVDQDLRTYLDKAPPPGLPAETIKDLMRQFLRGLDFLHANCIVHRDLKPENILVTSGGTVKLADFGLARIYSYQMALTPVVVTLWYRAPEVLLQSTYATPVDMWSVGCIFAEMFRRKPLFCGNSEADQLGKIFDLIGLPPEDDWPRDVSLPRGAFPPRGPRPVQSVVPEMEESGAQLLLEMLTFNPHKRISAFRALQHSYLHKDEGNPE
Sequence of CDK4-cyclinD1 (P24385 whole entry partner): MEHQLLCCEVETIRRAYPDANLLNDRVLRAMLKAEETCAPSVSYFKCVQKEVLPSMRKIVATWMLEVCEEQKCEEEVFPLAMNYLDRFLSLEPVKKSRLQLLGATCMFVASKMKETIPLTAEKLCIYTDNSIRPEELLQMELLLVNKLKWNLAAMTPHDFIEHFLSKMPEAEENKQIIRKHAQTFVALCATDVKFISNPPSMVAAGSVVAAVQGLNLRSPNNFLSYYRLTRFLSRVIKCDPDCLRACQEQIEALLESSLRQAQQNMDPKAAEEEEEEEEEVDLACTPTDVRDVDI
Summary of the method: as §1

FLT3(D835Y) = target: T2, FLT3(D835Y) (Homo sapiens, UniProt P36888, D835Y); conditions: read-out: % control
T2 sequence (P36888 27-993 D835Y): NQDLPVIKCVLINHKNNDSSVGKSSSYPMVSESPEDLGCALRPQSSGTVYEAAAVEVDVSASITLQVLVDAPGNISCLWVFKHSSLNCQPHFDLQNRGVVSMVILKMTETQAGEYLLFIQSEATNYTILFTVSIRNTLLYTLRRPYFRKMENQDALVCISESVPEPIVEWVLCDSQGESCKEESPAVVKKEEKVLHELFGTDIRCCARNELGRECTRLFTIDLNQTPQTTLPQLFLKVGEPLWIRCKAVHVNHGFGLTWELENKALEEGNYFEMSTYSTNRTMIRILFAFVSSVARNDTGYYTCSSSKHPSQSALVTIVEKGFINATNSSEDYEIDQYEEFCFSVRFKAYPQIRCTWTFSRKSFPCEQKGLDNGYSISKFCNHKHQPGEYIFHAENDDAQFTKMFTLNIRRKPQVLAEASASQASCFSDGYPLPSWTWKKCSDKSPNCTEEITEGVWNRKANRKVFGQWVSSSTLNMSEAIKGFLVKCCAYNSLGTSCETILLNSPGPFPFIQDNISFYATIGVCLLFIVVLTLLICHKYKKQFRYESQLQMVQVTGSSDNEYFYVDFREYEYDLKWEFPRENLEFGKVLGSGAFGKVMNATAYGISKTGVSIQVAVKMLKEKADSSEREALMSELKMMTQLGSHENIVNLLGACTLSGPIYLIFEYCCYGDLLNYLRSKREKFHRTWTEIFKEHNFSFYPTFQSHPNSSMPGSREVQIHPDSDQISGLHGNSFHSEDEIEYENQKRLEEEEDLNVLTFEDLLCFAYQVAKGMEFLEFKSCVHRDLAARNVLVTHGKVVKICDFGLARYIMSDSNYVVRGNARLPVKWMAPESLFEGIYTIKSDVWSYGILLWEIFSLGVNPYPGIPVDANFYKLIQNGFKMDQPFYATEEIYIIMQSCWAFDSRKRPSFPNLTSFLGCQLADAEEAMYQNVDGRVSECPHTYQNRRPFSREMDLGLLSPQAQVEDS
Summary of the method: as §1

GRK1 = target: T3, GRK1 (Homo sapiens, UniProt Q15835); conditions: GRK1, 1 μM; read-out: % control
T3 sequence (Q15835 1-563): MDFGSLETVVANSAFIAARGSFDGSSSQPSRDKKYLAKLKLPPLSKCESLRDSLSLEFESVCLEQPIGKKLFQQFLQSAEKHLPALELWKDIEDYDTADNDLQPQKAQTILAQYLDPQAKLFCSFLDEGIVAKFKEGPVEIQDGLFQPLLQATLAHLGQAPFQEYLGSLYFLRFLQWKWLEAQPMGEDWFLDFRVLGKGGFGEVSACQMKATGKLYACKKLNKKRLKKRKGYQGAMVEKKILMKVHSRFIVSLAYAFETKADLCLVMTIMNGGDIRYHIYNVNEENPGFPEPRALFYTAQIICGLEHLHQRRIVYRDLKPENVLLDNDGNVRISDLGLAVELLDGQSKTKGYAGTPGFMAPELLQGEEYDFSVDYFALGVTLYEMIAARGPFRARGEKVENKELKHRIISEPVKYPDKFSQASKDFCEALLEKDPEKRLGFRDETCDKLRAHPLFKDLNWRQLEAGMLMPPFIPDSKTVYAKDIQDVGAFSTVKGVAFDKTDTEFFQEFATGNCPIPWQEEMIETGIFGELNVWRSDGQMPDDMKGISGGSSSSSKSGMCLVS
Summary of the method: as §1

RIPK2 = RIPK2 (Homo sapiens, UniProt O43353); conditions: RIPK2, 1 μM; read-out: % control
Sequence of RIPK2 (O43353 whole entry): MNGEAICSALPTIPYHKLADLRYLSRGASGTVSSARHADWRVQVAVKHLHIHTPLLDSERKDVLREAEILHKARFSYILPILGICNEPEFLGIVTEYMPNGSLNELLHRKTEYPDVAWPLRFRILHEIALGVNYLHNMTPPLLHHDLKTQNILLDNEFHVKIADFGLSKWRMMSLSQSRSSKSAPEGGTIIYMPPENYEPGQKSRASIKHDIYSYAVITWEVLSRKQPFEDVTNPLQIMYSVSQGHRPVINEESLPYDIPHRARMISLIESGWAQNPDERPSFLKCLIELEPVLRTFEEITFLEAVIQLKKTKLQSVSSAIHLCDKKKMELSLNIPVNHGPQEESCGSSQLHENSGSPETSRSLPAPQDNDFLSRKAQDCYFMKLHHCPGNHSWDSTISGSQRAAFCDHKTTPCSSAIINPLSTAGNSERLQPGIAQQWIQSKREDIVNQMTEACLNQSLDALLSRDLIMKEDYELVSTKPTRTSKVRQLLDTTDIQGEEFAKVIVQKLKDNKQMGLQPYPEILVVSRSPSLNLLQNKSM
Summary of the method: as §1

SNRK = target: T4, SNRK (Homo sapiens, UniProt Q9NRH2); conditions: read-out: % control
T4 construct: purchased KinomeScan® (panel service)
T4 sequence (Q9NRH2 1-765): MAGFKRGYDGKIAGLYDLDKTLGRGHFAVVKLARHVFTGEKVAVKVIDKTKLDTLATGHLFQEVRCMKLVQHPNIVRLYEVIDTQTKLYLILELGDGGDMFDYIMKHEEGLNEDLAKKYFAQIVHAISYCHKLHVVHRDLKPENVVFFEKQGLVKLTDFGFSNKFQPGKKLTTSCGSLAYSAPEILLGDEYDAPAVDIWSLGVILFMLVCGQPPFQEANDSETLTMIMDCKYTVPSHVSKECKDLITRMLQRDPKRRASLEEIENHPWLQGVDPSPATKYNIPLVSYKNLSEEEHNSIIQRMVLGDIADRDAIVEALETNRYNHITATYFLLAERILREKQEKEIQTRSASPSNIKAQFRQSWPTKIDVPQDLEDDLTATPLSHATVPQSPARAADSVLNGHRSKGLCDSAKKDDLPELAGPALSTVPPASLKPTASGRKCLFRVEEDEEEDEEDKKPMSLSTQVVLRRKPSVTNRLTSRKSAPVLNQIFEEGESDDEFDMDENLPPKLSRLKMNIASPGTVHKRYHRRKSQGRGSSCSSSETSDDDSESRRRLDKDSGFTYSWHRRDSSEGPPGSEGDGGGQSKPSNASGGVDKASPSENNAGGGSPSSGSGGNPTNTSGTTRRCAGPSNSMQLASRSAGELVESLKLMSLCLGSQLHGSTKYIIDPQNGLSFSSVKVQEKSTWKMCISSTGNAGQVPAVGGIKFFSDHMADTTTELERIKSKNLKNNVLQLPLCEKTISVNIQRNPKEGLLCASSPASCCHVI
Summary of the method: as §1

WNK1 = WNK1 (Homo sapiens, UniProt Q9H4A3); conditions: WNK1, 1 μM; read-out: % control
Sequence of WNK1 (Q9H4A3 whole entry): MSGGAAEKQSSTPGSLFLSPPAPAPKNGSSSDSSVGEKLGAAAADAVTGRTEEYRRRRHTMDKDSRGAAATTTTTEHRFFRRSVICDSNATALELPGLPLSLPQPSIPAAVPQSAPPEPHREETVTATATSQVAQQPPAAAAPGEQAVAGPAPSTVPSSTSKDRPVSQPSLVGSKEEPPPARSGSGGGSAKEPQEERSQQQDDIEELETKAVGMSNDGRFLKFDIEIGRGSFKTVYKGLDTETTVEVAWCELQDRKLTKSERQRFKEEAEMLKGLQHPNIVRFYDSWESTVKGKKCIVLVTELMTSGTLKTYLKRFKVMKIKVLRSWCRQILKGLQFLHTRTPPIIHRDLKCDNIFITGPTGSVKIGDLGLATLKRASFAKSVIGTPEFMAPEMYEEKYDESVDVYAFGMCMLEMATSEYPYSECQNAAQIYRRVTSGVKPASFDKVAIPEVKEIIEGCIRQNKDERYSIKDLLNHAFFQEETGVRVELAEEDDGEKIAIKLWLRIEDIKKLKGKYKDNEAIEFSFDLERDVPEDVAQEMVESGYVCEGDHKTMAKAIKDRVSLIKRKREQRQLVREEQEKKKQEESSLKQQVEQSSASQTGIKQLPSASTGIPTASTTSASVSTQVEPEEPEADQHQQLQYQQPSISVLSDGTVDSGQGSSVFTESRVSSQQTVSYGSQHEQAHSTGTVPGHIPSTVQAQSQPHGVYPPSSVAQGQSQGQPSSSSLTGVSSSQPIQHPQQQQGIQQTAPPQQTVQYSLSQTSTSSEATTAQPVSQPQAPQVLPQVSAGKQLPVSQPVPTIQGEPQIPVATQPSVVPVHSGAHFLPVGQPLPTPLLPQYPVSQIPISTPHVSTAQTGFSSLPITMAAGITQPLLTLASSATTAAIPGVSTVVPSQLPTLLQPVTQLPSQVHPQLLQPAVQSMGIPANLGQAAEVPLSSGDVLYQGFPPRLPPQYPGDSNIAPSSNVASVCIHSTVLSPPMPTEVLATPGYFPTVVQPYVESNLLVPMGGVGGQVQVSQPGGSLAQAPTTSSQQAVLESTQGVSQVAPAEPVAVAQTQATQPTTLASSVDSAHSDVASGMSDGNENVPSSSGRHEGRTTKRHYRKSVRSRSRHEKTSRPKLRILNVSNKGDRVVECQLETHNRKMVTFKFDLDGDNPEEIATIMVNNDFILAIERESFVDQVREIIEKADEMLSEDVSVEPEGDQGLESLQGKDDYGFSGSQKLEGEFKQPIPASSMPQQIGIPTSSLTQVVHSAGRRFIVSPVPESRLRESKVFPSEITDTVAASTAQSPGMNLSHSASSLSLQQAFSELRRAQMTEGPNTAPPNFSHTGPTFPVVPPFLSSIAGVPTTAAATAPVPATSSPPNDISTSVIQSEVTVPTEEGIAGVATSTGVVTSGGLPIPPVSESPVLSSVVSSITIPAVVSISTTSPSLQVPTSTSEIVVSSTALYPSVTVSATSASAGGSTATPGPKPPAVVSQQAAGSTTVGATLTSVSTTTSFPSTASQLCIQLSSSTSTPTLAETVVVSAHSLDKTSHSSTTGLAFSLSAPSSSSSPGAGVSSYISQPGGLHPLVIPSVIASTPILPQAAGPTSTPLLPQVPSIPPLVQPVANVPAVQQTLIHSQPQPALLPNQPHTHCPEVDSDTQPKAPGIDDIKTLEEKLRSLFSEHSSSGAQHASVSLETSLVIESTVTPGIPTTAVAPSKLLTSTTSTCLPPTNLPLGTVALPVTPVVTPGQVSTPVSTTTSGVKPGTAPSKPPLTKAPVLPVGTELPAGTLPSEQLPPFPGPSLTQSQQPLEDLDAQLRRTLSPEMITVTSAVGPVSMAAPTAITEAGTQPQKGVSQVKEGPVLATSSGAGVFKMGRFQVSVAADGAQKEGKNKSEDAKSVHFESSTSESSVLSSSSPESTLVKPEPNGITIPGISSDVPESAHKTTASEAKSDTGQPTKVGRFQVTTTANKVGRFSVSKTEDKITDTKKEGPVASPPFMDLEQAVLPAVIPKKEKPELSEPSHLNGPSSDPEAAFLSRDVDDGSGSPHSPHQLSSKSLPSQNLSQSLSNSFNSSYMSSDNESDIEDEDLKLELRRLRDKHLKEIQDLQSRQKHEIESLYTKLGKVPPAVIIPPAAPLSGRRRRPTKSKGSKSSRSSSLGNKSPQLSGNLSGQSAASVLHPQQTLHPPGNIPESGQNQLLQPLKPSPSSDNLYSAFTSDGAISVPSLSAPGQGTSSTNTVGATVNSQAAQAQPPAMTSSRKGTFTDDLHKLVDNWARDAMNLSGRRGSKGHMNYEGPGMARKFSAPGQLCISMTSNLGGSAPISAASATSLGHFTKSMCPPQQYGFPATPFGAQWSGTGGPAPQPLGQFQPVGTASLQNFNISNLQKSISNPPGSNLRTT
Summary of the method: as §1

T1 sequence (P00519 whole entry F317I): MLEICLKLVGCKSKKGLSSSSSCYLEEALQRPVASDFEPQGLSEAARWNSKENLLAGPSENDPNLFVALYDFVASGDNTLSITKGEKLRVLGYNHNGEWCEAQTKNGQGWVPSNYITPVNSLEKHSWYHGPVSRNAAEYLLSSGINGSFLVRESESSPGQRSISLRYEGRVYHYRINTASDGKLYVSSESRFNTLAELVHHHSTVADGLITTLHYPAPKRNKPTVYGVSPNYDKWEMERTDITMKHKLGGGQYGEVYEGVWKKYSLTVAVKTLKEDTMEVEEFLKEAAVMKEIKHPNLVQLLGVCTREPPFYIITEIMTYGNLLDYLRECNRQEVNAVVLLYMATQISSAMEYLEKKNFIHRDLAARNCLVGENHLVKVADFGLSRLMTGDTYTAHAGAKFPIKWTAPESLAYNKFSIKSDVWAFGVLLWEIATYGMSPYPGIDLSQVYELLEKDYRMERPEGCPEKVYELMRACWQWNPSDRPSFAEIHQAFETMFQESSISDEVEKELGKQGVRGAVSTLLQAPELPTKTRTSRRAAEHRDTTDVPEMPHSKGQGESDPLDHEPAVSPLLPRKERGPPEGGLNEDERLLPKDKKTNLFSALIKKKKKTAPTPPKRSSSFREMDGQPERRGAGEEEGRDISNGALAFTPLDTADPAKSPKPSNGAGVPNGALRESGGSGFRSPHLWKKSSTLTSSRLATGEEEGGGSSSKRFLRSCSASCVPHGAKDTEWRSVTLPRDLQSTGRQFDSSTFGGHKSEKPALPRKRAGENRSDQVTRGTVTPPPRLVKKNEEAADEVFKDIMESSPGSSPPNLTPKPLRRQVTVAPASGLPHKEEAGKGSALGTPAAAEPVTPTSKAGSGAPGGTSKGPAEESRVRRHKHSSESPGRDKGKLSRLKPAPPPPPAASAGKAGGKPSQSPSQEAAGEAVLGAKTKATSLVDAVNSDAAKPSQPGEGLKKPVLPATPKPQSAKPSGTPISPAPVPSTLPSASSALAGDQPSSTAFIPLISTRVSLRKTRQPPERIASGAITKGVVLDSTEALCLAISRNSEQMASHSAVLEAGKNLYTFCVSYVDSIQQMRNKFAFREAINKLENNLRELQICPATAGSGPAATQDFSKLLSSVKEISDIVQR

`CNc1c(-c2cnn([C@H]3CCN(C(C)=O)C[C@@H]3F)c2)cnc2[nH]cc(Cl)c12` [Compound 77, 1-((3S,4S)-4-(4-(3-chloro-4-(methylamino)-1H-pyrrolo[2,3-b]pyridin-5-yl)-1H-pyrazol-1-yl)-3-fluoropiperidin-1-yl)ethan-1-one] was tested, and the remaining binding at 1 µM [1] was 81%, the remaining binding at 1 µM (CDK4-cyclinD1) was 74% and the remaining binding at 1 µM (FLT3(D835Y)) was 9.7%. For the same compound, the remaining binding at 1 µM (GRK1) was 60%, the remaining binding at 1 µM (RIPK2) was 100% and the remaining binding at 1 µM (SNRK) was 100%. It also gave a remaining binding at 1 µM (WNK1) of 67%.
Work on `CNc1c(-c2ccc(C(=O)N3CCC(N4CCOCC4)CC3)cc2)cnc2[nH]cc(Cl)c12` [Compound 96, (4-(3-chloro-4-(methylamino)-1H-pyrrolo[2,3-b]pyridin-5-yl)phenyl)(4-morpholinopiperidin-1-yl)methanone] yielded a remaining binding at 1 µM [1] of 100%, a remaining binding at 1 µM (CDK4-cyclinD1) of 73% and a remaining binding at 1 µM (FLT3(D835Y)) of 11%. The remaining binding at 1 µM (GRK1) was 63%, the remaining binding at 1 µM (RIPK2) was 99% and the remaining binding at 1 µM (SNRK) was 100%. For the same compound, the remaining binding at 1 µM (WNK1) was 80%.
`O=C(c1ccc(-c2cnc3[nH]cc(Cl)c3c2NC2CCCC2)cc1)N1CCC(N2CCOCC2)CC1` [Compound 101, (4-(3-chloro-4-(cyclopentylamino)-1H-pyrrolo[2,3-b]pyridin-5-yl)phenyl)(4-morpholinopiperidin-1-yl)methanone] showed a remaining binding at 1 µM [1] of 10%, a remaining binding at 1 µM (CDK4-cyclinD1) of 100% and a remaining binding at 1 µM (FLT3(D835Y)) of 33%. For the same compound, the remaining binding at 1 µM (GRK1) was 84%, the remaining binding at 1 µM (RIPK2) was 100% and the remaining binding at 1 µM (SNRK) was 100%. It also gave a remaining binding at 1 µM (WNK1) of 90%.

Source: US12275731B2, “Azaindole inhibitors of wild-type and mutant forms of LRRK2” (DANA-FARBER CANCER INSTITUTE, INC., priority 2018, dated 2025)
